Measured values published in US12258344B2, “Azaaromatic amide derivatives for the treatment of cancer” (SHENZHEN FORWARD PHARMACEUTICALS CO., LTD., priority 2019, dated 2025).

Assays:
Format in all cases: cell-based
[1] = biological target: BaF3 (EGFR-S768I) (Homo sapiens, UniProt P00533, S768I, cells depend on it); test: Test 7: BaF3 (EGFR-S768I) cell proliferation test; settings: 72 hours, Cell Titer-Glo, read-out: Test 7 - IC50
Protocol: Test 7: BaF3 (EGFR-S768I) Cell Proliferation Test
BaF3 (EGFR-S768I) was cultured in RPMI1640 medium containing 10% fetal bovine serum and 2 mM glutamine. The cells were grown at 37° C. in a humidified incubator with 5% CO2.
(§1) The number of viable cells in the culture was measured according to the protocol described in Promega's Cell Titer-Glo Luminescent cell Viability Assay (Promega catalog number #G7570). 90 μl of cells (3,000 cells/well) were cultured in growth medium in a Corning black transparent bottom 96-well plate, and cultured in a 5% CO2 humidified incubator at 37° C. overnight. The compound serially diluted in 100% DMSO was added to the cells using a pipette, and the cells were incubated for another 72 hours. 100 μl of the mixed Cell Titer-Glo reagent was added to the cells in the 96-well culture plate to lyse the cells and mix gently. Subsequently, the […] was detected on the Envision microplate detector to obtain the data of each compound. Finally, the data was input into a suitable software package (such as Prism) for curve fitting analysis.

[2] = biological target: BaF3 (EGFR-V769insASV) (Homo sapiens, UniProt P00533, DUP767-769, cells depend on it); test: Test 4: BaF3 (EGFR-V769insASV) cell proliferation test; settings: 72 hours, Cell Titer-Glo, read-out: Test 4 - IC50
Sequence of BaF3 (EGFR-V769insASV) (P00533 with tags, fused parts or gaps DUP767-769): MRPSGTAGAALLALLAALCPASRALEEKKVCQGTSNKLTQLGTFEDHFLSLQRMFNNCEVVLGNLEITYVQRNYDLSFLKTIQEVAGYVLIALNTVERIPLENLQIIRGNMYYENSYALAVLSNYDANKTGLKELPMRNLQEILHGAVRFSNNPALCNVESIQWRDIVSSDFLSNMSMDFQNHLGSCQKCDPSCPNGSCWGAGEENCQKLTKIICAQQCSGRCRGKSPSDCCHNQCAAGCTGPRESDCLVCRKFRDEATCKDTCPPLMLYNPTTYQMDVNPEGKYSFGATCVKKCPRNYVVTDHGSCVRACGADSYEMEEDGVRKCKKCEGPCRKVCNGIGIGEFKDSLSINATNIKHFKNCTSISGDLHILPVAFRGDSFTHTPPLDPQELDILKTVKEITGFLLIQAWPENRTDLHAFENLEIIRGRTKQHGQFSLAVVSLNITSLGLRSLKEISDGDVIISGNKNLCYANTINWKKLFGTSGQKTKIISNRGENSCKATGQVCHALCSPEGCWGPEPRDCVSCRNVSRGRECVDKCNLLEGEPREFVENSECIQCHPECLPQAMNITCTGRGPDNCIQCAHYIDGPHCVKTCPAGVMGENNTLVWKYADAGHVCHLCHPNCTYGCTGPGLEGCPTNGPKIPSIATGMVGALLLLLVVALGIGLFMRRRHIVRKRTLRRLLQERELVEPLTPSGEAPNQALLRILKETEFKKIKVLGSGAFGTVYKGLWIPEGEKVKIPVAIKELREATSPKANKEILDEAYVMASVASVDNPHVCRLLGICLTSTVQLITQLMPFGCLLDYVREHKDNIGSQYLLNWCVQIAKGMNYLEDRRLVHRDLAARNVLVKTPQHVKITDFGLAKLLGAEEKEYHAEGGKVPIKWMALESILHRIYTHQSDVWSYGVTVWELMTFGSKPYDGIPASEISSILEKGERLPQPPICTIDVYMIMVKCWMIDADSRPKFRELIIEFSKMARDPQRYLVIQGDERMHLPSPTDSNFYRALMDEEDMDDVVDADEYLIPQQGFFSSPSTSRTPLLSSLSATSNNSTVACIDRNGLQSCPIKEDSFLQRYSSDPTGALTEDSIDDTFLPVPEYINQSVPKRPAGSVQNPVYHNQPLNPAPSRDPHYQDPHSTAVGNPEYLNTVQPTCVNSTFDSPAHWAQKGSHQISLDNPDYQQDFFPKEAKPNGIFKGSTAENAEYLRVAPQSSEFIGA
Protocol: Test 4: BaF3 (EGFR-V769insASV) Cell Proliferation Test
BaF3 (EGFR-V769insASV) was cultured in RPMI1640 medium containing 10% fetal bovine serum and 2 mM glutamine. The cells were grown at 37° C. in a humidified incubator with 5% CO2.
as §1

[3] = biological target: BaF3 (HER2-P780insGSP) (Homo sapiens, UniProt P04626, DUP778-780, cells depend on it); test: Test 10: BaF3 (HER2-P780insGSP) cell proliferation test; settings: 72 hours, Cell Titer-Glo, read-out: Test 10 - IC50
Protocol: Test 10: BaF3 (HER2-P780insGSP) Cell Proliferation Test
BaF3 (HER2-P780insGSP) was cultured in RPMI1640 medium containing 10% fetal bovine serum and 2 mM glutamine. The cells were grown at 37° C. in a humidified incubator with 5% CO2.
as §1

[4] = biological target: BaF3 (EGFR-D770insNPG) (Homo sapiens, UniProt P00533, INS772GNP, cells depend on it); test: Test 6: BaF3 (EGFR-D770insNPG) cell proliferation test; settings: 72 hours, Cell Titer-Glo, read-out: Test 6 - IC50
Protocol: Test 6: BaF3 (EGFR-D770insNPG) Cell Proliferation Test
BaF3 (EGFR-D770insNPG) was cultured in RPMI1640 medium containing 10% fetal bovine serum and 2 mM glutamine. The cells were grown at 37° C. in a humidified incubator with 5% CO2.
as §1

[5] = tested on: NCI-H1975 (EGFR L858R/T790M double mutant); test: Test 1: EGFR L858R/T790M (EGFR double mutant) cell proliferation test; settings: Homo sapiens; NCI-H1975 cells, 72 hours, Cell Titer-Glo
[6] = biological target: BaF3 (EGFR-N771insH) (Homo sapiens, UniProt P00533, INS771H, cells depend on it); test: Test 5: BaF3 (EGFR-N771insH) cell proliferation test; settings: 72 hours, Cell Titer-Glo, read-out: Test 5 - IC50
Protocol: Test 5: BaF3 (EGFR-N771insH) Cell Proliferation Test
BaF3 (EGFR-N771insH) was cultured in RPMI1640 medium containing 10% fetal bovine serum and 2 mM glutamine. The cells were grown at 37° C. in a humidified incubator with 5% CO2.
as §1

[7] = biological target: BaF3 (HER2-A775insYVMA) (Homo sapiens, UniProt P04626, DUP772-775, cells depend on it); test: Test 9: BaF3 (HER2-A775insYVMA) cell proliferation test; settings: 72 hours, Cell Titer-Glo, read-out: Test 9 - IC50
Sequence of BaF3 (HER2-A775insYVMA) (P04626 with tags, fused parts or gaps DUP772-775): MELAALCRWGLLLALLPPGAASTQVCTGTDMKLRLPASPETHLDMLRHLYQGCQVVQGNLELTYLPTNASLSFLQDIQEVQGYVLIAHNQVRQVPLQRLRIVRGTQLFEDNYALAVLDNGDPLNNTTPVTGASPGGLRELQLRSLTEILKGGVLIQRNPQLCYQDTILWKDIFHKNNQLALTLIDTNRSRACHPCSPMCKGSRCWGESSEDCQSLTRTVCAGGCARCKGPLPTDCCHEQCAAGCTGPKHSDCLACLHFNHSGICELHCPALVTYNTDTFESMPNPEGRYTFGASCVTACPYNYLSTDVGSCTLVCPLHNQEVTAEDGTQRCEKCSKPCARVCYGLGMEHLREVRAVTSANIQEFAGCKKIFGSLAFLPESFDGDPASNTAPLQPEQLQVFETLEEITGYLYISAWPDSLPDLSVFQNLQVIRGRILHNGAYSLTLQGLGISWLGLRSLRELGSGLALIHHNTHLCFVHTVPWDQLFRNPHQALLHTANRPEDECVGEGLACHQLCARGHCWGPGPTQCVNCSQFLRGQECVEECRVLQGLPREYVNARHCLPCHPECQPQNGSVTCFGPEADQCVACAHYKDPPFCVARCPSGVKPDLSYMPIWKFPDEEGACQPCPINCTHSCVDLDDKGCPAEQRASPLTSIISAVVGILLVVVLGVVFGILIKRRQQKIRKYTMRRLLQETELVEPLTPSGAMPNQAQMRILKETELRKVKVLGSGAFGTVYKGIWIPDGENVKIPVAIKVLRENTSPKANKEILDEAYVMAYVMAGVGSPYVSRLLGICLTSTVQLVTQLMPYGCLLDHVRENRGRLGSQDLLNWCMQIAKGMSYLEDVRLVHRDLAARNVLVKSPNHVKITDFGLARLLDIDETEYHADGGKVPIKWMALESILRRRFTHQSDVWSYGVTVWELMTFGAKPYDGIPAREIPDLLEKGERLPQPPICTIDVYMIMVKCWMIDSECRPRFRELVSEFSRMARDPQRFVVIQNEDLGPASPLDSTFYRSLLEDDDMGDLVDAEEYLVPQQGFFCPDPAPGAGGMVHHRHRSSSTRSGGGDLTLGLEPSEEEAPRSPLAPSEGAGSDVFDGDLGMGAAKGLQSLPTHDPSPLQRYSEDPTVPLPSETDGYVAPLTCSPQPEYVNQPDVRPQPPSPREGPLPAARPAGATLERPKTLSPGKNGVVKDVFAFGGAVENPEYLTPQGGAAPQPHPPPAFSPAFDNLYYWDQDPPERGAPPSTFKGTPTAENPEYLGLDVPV
Protocol: Test 9: BaF3 (HER2-A775insYVMA) Cell Proliferation Test
BaF3 (HER2-A775insYVMA) was cultured in RPMI1640 medium containing 10% fetal bovine serum and 2 mM glutamine. The cells were grown at 37° C. in a humidified incubator with 5% CO2.
as §1

[8] = biological target: BaF3 (HER2-G776insVC) (Homo sapiens, UniProt P04626, cells depend on it, form not given); test: Test 11: BaF3 (HER2-G776insVC) cell proliferation test; settings: 72 hours, Cell Titer-Glo, read-out: Test 11 - IC50
Sequence of BaF3 (HER2-G776insVC) (P04626 with tags, fused parts or gaps DELINS776-776VC): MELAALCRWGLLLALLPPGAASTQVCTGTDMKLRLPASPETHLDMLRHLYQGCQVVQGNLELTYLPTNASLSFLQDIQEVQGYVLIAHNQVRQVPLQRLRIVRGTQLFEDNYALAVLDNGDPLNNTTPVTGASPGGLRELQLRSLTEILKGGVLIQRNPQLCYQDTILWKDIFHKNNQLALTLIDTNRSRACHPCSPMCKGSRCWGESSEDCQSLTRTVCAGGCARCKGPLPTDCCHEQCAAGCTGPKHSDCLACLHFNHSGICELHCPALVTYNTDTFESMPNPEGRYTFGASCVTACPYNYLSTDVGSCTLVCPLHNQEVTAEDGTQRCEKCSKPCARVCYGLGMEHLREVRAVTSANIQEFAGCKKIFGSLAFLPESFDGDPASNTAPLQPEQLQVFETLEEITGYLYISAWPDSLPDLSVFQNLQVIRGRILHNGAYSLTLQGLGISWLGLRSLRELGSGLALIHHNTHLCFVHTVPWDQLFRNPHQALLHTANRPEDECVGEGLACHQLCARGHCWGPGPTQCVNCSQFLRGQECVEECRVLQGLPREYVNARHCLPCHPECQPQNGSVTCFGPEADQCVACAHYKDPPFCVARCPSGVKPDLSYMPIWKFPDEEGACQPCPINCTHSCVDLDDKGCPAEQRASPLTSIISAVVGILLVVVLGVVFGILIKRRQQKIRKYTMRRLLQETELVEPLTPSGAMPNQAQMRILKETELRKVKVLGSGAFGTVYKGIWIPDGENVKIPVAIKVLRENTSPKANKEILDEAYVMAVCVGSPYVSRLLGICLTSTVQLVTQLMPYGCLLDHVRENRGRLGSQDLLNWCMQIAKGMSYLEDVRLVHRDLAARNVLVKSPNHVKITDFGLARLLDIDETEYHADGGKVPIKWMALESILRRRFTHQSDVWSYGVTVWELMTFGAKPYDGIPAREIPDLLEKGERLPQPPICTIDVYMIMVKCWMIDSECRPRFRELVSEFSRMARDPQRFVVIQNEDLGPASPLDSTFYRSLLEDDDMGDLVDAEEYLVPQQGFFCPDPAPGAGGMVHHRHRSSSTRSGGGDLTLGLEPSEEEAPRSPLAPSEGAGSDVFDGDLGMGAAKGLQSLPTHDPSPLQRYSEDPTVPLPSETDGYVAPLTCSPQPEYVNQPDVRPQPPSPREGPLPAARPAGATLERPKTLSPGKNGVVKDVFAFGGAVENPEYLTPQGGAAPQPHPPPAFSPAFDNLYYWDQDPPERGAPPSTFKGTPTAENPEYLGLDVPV
Protocol: Test 11: BaF3 (HER2-G776insVC) Cell Proliferation Test
The engineered cell line BaF3 (HER2-G776insVC) was constructed by the inventor himself (for the method of cell line construction, see Jingrui Jiang et al., Cancer Res. 2005 Oct. 1; 65 (19): 8964-74; Jacqulyne P. Robichaux et al., Nat Med. 2018 May; 24 (5): 638-646). BaF3 (HER2-G776insVC) was cultured in RPMI1640 medium containing 10% fetal bovine serum and 2 mM glutamine. The cells were grown at 37° C. in a humidified incubator with 5% CO2.
as §1

[9] = biological target: BaF3 (EGFR-L861Q) (Homo sapiens, UniProt P00533, L861Q, cells depend on it); test: Test 8: BaF3 (EGFR-L861Q) cell proliferation test; settings: 72 hours, Cell Titer-Glo, read-out: Test 8 - IC50
Protocol: Test 8: BaF3 (EGFR-L8610) Cell Proliferation Test
BaF3 (EGFR-L861Q) was cultured in RPMI1640 medium containing 10% fetal bovine serum and 2 mM glutamine. The cells were grown at 37° C. in a humidified incubator with 5% CO2.
as §1

Sequence of BaF3 (EGFR-S768I) (P00533 whole entry S768I): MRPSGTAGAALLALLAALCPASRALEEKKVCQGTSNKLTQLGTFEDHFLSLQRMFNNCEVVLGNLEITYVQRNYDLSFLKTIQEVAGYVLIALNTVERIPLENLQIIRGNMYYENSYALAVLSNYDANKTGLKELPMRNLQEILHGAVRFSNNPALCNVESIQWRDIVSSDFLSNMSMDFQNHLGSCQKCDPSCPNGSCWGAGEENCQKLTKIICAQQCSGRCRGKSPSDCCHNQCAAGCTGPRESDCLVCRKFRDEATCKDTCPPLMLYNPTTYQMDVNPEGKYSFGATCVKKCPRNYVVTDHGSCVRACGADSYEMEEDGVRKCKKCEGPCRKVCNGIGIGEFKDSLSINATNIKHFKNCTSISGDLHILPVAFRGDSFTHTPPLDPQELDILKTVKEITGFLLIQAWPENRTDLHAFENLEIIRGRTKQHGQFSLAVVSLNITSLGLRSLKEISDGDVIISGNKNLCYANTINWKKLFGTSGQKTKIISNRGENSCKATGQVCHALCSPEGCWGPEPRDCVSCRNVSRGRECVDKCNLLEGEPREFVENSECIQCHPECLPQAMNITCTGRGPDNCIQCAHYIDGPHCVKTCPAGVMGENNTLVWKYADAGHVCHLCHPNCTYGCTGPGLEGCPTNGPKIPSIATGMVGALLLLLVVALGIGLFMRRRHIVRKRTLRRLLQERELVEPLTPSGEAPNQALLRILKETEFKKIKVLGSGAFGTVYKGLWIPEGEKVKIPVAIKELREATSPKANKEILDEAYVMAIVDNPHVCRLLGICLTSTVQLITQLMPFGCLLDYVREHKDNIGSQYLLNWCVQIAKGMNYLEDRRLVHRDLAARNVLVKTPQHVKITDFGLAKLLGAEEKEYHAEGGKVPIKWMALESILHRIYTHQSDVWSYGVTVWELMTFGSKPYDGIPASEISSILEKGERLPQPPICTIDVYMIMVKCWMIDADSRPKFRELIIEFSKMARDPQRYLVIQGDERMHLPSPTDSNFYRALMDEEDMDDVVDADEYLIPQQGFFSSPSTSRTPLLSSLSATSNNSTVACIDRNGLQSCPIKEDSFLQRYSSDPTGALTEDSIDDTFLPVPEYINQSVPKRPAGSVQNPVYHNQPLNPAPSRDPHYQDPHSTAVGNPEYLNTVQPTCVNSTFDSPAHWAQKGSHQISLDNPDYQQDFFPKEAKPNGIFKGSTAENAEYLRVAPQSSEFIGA

GI50 [1]	GI50 [2]	GI50 [3]	GI50 [4]	IC50 [5]	GI50 [6]	GI50 [7]	GI50 [8]	GI50 [9]	SMILES
7.41 nM	45 nM	6.58 nM	8.87 nM	12.7 nM	7.66 nM	10.8 nM	1.83 nM	3.87 nM	C=CC(=O)Nc1cc(Nc2ncnc(-c3cn(C)c4ccc(F)cc34)n2)c(OCC(F)(F)F)cc1N(C)CCN(C)C [Example 15, N-(2-((2-(dimethylamino)ethyl)(methyl)amino)-5-((4-(5-fluoro-1-methyl-1H-indol-3-yl)-1,3,5-triazin-2-yl)amino)-4-(2,2,2-trifluoroethoxy)phenyl)acrylamide]
38.1 nM	47.9 nM	8.76 nM	10.2 nM	13.5 nM	9.19 nM	14.2 nM	1.07 nM	22.5 nM	C=CC(=O)Nc1cc(Nc2ncnc(-c3cn(C)c4ccc(F)cc34)n2)c(OC)cc1N(C)CCN(C)C [Example 11]
8.91 nM	25.9 nM	6.92 nM	10 nM	16.8 nM	9.21 nM	12.4 nM	1.95 nM	4.58 nM	C=CC(=O)Nc1cc(Nc2ncnc(-c3cn(C)c4ccc(F)cc34)n2)c(OC(F)F)cc1N(C)CCN(C)C [Example 14, N-(4-(difluoromethoxy)-2-((2-(dimethylamino)ethyl)(methyl)amino)-5-((4-(5-fluoro-1-methyl-1H-indol-3-yl)-1,3,5-triazin-2-yl)amino)phenyl)acrylamide]
